# Data as given in publication PMC7998250, “Temperate Zone Plant Natural Products—A Novel Resource for Activity against Tropical Parasitic Diseases” (Pharmaceuticals, 2021).
# Like-named read-outs stand apart in the source and are kept apart here.
# Key:
# [1] = test system: L. donovani axenic amastigotes; assay: Concentration-response EC50, L. donovani axenic amastigotes; format: cell-based; conditions: Leishmania donovani
# Text: The four lanosterone-like sterols derived from the Noble Fir Abies procera (700022, 700107, 700136) and the Grand Fir Abies grandis (700240) were the only initial compounds taken forward for L. mexicana due to their nanomolar activity and apparent low cytotoxicity (Figure 3a). […] Understanding the impact of the ring-opened lactone head group in this compound compared to the other three warrants further analysis in exploring their structure-activity relationships. These four sterols were also tested for growth inhibitory activity against L. donovani axenic amastigotes. […] As Leishmania spp. amastigotes typically reside with macrophages, further cytotoxicity assays with these sterols were performed against an activated monocyte cell line (THP-1) (Figure 4b).
# [2] = test system: 700022-resistant line of L. mexicana (r22) axenic amastigotes; assay: EC50 in 700022-resistant L. mexicana (r22) axenic amastigotes; format: cell-based, Leishmania mexicana; conditions: for r22 8 weeks RI (resistance index, EC50 in r22/EC50 in WT): 8 weeks of 700022 selection pressure
# Procedure: A 700022-resistant line of L. mexicana (r22) was generated using a previously reported method (Figure S3). […] All leishmanicidal sterols identified were assayed against r22 after 8 weeks of 700022 pressure and cross-resistance was found against all four compounds, each with a similar resistance index of between 4–5 (Figure 6c). Following 28 weeks of selection, the morphology of the r22 promastigotes was compared to that of WT (Figure 6d). […] The body area of both promastigotes and amastigotes was also assessed, noting a small (c 20%) decrease in the body area of r22 parasites compared to WT strains (Figure S3).
# Figure 6 Comparison between wildtype and 700022-resistant (r22) L. mexicana cell lines. Log concentration versus normalised (compared to untreated control) growth curves for wildtype (WT) and corresponding 700022-selected (r22) L. mexicana (a) promastigotes and (b) axenic amastigotes. Error bars represent upper and lower limits of the StDev (n = 9). […] The resistance index (EC50 in r22/EC50 in WT) are shown for each compound. (d) Scanning electron micrographs of WT and r22 promastigotes illustrating the shortened flagellum in r22 parasites. (e) Analysis of flagellum length in WT and r22 promastigotes (n = 287 of each strain) reported using a box and whisker plot (boxes represents the 25–75th percent distribution with the mean as a horizontal line, whiskers represent the distribution of all values) with a statistically significant difference (Mann–Whitney U test, p-value < 2.2 × 10^−16). […] Error bars represent upper and lower limits of the StDev (n = 9). […] The resistance index (EC50 in r22/EC50 in WT) are shown for each compound. TEXT PRINTED IN THE PICTURE: (c) 700022: 4.1 | (c) 700107: 4.1 | (c) 700136: 5.3 | (c) 700240: 5.3 | (f) 700022: 42.1 | (f) Milt: 17.9 | (f) Pent: 0.75 | (f) AmpB: 1.22 DOUBTS OF THE COPYIST ABOUT THIS PICTURE: Panels c and f: the numbers printed above the bar pairs have no measure or unit printed with them in the picture.
# L. mexicana parasites were grown in increasing concentrations of 700022 in a stepwise manner, as previously described. […] A dose response assay of the newly selected promastigotes was completed as stated above, with the exception of the seeding density of 1 × 10^5 cells/mL. At this point, the drug pressure was increased to the concentration of the new EC50 value.
# T. brucei = assay: Concentration-response EC50, T. brucei; format: cell-based, Trypanosoma brucei brucei; conditions: 48 h
# P. falciparum Dd2Luc = assay: Concentration-response EC50, P. falciparum Dd2Luc; format: cell-based, Plasmodium falciparum; conditions: 48 h
# Text: Initial hits from the parasite panel screen were taken forward in log concentration versus normalised response assays to estimate the half maximal effective concentration (EC50) in hit species as well as the half maximal cytotoxic concentrations (CC50) in the human hepatoma cell line HepG2 as a preliminary test for selectivity. Using CC50/EC50 to define the selectivity index (SI), the selectivity for each compound in a defined species compared to a human cell line was estimated and compared to the EC50 (Figure 3).
# EC50 values were determined by serial two-fold dilution of each compound in 96 well plates. Culture conditions and viability assays were as stated for the initial screen, with some exceptions. L. mexicana and L. donovani axenic amastigotes were seeded at 2 × 10^6 cell/s mL, T. brucei and T. evansi were seeded at 2 × 10^5 cells/mL. For cytotoxicity studies, HepG2 cells were seeded at 1 × 10^5 cells/mL, incubated for 48 h and viability was assessed using the Alamar Blue assay [66, 67]. […] Normalised growth and viability data (compared to untreated controls) were plotted against Log10 concentration to estimate EC50 in GraphPad (Prism v6).
# P. falciparum 3D7 = assay: Concentration-response EC50, P. falciparum 3D7; format: cell-based; conditions: Plasmodium falciparum
# Text: This is not surprising as the rate of kill is a result of the mechanism of cell death and, given their structural similarity, these three bisobolane sesquiterpene glycosides likely share the same target(s), albeit with some differences in affinity. The rate of kill, relatively, falls between that of atovaquone and dihydroartemisinin and is more similar to that of chloroquine.
# [3] = Leishmania mexicana, read-out: r22 8 weeks EC50, r22 after 8 weeks of 700022 selection pressure
# [4] = Trypanosoma brucei, read-out: T. brucei EC50, bloodstream form, 48 h
# [5] = Plasmodium falciparum, read-out: P. falciparum Dd2Luc EC50, intraerythrocytic, 48 h
# [6] = 3D7, read-out: P. falciparum 3D7 EC50
Structure (SMILES),EC50 [1] [µM],"r22 8 weeks RI (resistance index, EC50 in r22/EC50 in WT) [2]","EC50 [2, 3] [µM]",EC50 (T. brucei; [4]) [µM],EC50 (P. falciparum Dd2Luc; [5]) [µM],EC50 (P. falciparum 3D7; [6]) [µM],other results
CC1=CC(O)(CC(C)C2(C)CC=C3C4=CCC5C(C)(C)C(O)CCC5(C)C4CCC32C)OC1=O (stereo not drawn) [Compound 700022],0.14,4.1,1,–,–,–,"EC50 ([2]; Leishmania mexicana, read-out: r22 28 weeks EC50, r22 after 28 weeks of 700022 selection pressure): 10.1 µM; EC50 ([2]; read-out: r22 28 weeks EC50, r22 after 28 weeks of 700022 selection pressure): 10 µM"
CC1OC(OC2C(OC(=O)C3CC[C@@H]4[C@H](C3)OC3(CC(OC(=O)/C=C/c5ccccc5)[C@@H](C)CO3)C43CO3)OC(CO)C(O)C2O)C(O)C(O)C1O (stereo partly drawn) [Compound 700042],–,–,–,0.41,0.28,0.19,–
CC1=CC(O)(CC(C)C2(C)CCC3C4=CCC5C(C)(CCC(O)C5(C)C)C4=CCC32C)OC1=O (stereo not drawn) [Compound 700107],0.26,4.1,1.1,–,–,–,–
CC1=CC(O)(CC(C)C2(C)CC=C3C4=CCC5C(C)(C)C(=O)CCC5(C)C4CCC32C)OC1=O (stereo not drawn) [Compound 700136],0.16,5.3,1.1,–,–,–,–
C/C(=C/C(=O)CC(C)C1CCC2(C)C3=CCC4C(C)(C)C(=O)CCC4(C)C3CCC12C)C(=O)O (stereo not drawn) [Compound 700240],0.34,5.3,2.7,–,–,–,–
C=C1C(=O)OC2CC(C)C3C=CC(=O)C3(C)C(OC(C)=O)C12 (stereo not drawn) [Compound 701155],–,–,–,–,1.6,2.9,"EC50 (T. brucei; read-out: T. brucei EC50, bloodstream form): 0.15 µM"
C=C1C(=O)OC2CC(C)C3C=CC(=O)C3(C)C(OC(=O)C(C)C)C12 (stereo not drawn) [Compound 701157],–,–,–,0.29,1.8,2.1,–
C=C1C(=O)OC2CC(C)C3C=CC(=O)C3(C)C(OC(=O)C(C)CC)C12 (stereo not drawn) [Compound 701158],–,–,–,0.31,~1,1.5,"EC50 (P. falciparum Dd2Luc; read-out: P. falciparum Dd2Luc EC50, intraerythrocytic): 1.6 µM"
C=C1C(=O)OC2CC(C)C3C(OC)CC(=O)C3(C)C(OC(=O)C(C)CC)C12 (stereo not drawn) [Compound 701159],–,–,–,–,4.5,–,"EC50 (T. brucei; Trypanosoma brucei, bloodstream form, read-out: T. brucei EC50): 0.39 µM; EC50 (P. falciparum 3D7; 3D7, intraerythrocytic, read-out: P. falciparum 3D7 EC50): 4.6 µM"
